Measured values as given in US20230270713A1, “Administration of Resiniferatoxin For Treatment of Bladder Pain or Bladder Cancer” (Sorrento Therapeutics, Inc., priority 2020, published 2023).
Where “and” joins values, the source holds several entries; their conditions need not be identical. Equal entries are not always repeated. Where two headings read alike, the source gives them in different places.

Tests used:
[1] = test system: CGRP and SP nerve fibers innervating dog bladder; experiment: Density of CGRP and SP axons in canine bladder (IHC, confocal); format: in vivo; conditions: dogs
Procedure: Canine bladders from a healthy dog (control) and from dogs with intravesical application of resiniferatoxin (RTX) at 2 different doses (25 mcg and 250 mcg) were prepared for immunohistochemistry and confocal laser microscopy to quantify the axons expressing substance P (SP) and calcitonin-gene related peptide (CGRP). Confocal images were obtained at 40× magnification using a Carl Zeiss scanning confocal laser microscope (model LSM 800, Jena, Germany) with Z-stack function.

[2] = Pharmacokinetic/toxicokinetic profile of RTX after intravesical instillation in dogs; format: in vivo, dog
Procedure: Local tolerance and the pharmacokinetic (PK), and toxicokinetic (TK) profile of RTX in dogs was determined after a single instillation of RTX into the bladder of dogs (n=6). The RTX formulations were prepared using aseptic techniques in a biological safety cabinet (BSC) by mixing the appropriate amount of diluent with the appropriate amount of RTX. Dosing formulation concentrations used were 1 and 10 mcg/mL.
Three male and three female dogs ranging in weight from 5.95 to 8.60 kg were used in the study. The dogs were assigned into Group 1 (receiving a dose of 1 mcg/mL RTX) or Group 2 (receiving a dose of 10 mcg/mL RTX) as shown in the Table 3 below.
RTX was administered via intravesical instillation into the urinary bladder. The animals were given a single dose of 25 or 250 mcg/dose in a total volume of 25 mL on Day 1 over a period of 1 hour (±5 minutes). RTX and diluent were administered to the dogs under general anesthesia via a Foley catheter placed into the bladder for 1 hour (±5 minutes).
Blood samples were collected from all animals on Day 1 pre-dose and at 0.5, 1, 2, 4, 6, 12, 24, 36, 48, 60, and 72 hours post-dose. The toxicokinetic (TK) parameters were determined for RTX, and if appropriate, the metabolites, from mean concentration-time data.
Cmax is the observed maximum plasma concentration from the start of dosing. Tmax is the time to reach the Cmax. AUC(0-T) is the area under the plasma concentration-time curve from time zero to the last measurable time point calculated by the linear trapezoidal rule.

[3] = female dogs 1004, 1006 individual, 250 mcg intravesical
[4] = female dogs, 250 mcg intravesical

C=C(C)[C@]12C[C@@H](C)[C@@]34O[C@](Cc5ccccc5)(O[C@@H]1[C@@H]3C=C(COC(=O)Cc1ccc(O)c(OC)c1)C[C@]1(O)C(=O)C(C)=C[C@@H]41)O2 [RTX, resiniferatoxin]
CGRP and SP axons innervating the bladder body ([1]; 25 mcg and 250 mcg intravesical, vs control dog): drastic reduction | density of CGRP and SP nerve fibers innervating the body, trigon, and fundus ([1]; 25 mcg and 250 mcg, vs control tissue): reduced | effect of 250 mcg in reducing density of CGRP and SP compared with 25 mcg ([1]; 250 mcg vs 25 mcg): greater effect | concentration at 2 h ([2]; both sexes, dog, plasma, other: intravesical instillation, 25 mcg, Group 1 dogs, 25 mL at 1 mcg/mL (25 mcg/dose), 2 hours post-dosing, male and female dog, read-out: plasma concentrations for RTX): < 0.05 ng/mL | AUC(0-T) Ratio (Male/Female) ([2]; dogs, 250 mcg intravesical): 1.23 | Cmax Ratio (Male/Female) ([2]; dogs, 250 mcg intravesical): 1.28 | RTX exposure in males compared with females ([2]; dogs, 250 mcg intravesical): similar | Plasma concentration of RTX ([2]; female dog 1002, 25 mcg intravesical, 2 h): BQL (*BQL—Below quantifiable limit (<50.0 pg/mL); adequate signal-to-noise enabled reporting value as estimate) | Plasma concentration of RTX ([2]; female dog 1002, 25 mcg intravesical, 4 h): BQL (*BQL—Below quantifiable limit (<50.0 pg/mL); adequate signal-to-noise enabled reporting value as estimate) | Plasma concentration of RTX ([2]; female dog 1002, 25 mcg intravesical, 6 h): BQL (*BQL—Below quantifiable limit (<50.0 pg/mL); adequate signal-to-noise enabled reporting value as estimate) | Plasma concentration of RTX ([2]; female dog 1002, 25 mcg intravesical, 12 h): BQL (*BQL—Below quantifiable limit (<50.0 pg/mL); adequate signal-to-noise enabled reporting value as estimate) | Plasma concentration of RTX ([2]; female dog 1002, 25 mcg intravesical, 24 h): BQL (*BQL—Below quantifiable limit (<50.0 pg/mL); adequate signal-to-noise enabled reporting value as estimate) | Plasma concentration of RTX ([2]; female dog 1002, 25 mcg intravesical, 36 h): BQL (*BQL—Below quantifiable limit (<50.0 pg/mL); adequate signal-to-noise enabled reporting value as estimate) | Plasma concentration of RTX ([2]; female dog 1002, 25 mcg intravesical, 48 h): BQL (*BQL—Below quantifiable limit (<50.0 pg/mL); adequate signal-to-noise enabled reporting value as estimate) | Plasma concentration of RTX ([2]; female dog 1002, 25 mcg intravesical, 60 h): BQL (*BQL—Below quantifiable limit (<50.0 pg/mL); adequate signal-to-noise enabled reporting value as estimate) | Plasma concentration of RTX ([2]; female dog 1002, 25 mcg intravesical, 72 h): BQL (*BQL—Below quantifiable limit (<50.0 pg/mL); adequate signal-to-noise enabled reporting value as estimate) | Plasma concentration of RTX ([2]; female dog 1002, 25 mcg intravesical, Predose): BQL (*BQL—Below quantifiable limit (<50.0 pg/mL); adequate signal-to-noise enabled reporting value as estimate) | AUC(0-T) [2, 3]: 0.441 ng·h/mL and 0.146 ng·h/mL | AUC(0-T)/Dose [2, 3]: 1.76 pg·h/mL/µg and 0.584 pg·h/mL/µg | Cmax [2, 3]: 0.388 ng/mL and 0.16 ng/mL | Cmax/Dose [2, 3]: 1.55 pg/mL/µg and 0.640 pg/mL/µg | Plasma concentration of RTX ([2]; female dogs 1004, 1006 individual, 250 mcg intravesical, 0.5 h): 0.388 ng/mL and 0 ng/mL | Plasma concentration of RTX ([2]; female dogs 1004, 1006 individual, 250 mcg intravesical, 1 h): 0.16 ng/mL | Plasma concentration of RTX ([2]; female dogs 1004, 1006 individual, 250 mcg intravesical, 2 h): 0.0511 ng/mL | Plasma concentration of RTX ([2]; female dogs 1004, 1006 individual, 250 mcg intravesical, 4 h): 0 ng/mL | Plasma concentration of RTX ([2]; female dogs 1004, 1006 individual, 250 mcg intravesical, 6 h): 0 ng/mL | Plasma concentration of RTX ([2]; female dogs 1004, 1006 individual, 250 mcg intravesical, 12 h): 0 ng/mL | Plasma concentration of RTX ([2]; female dogs 1004, 1006 individual, 250 mcg intravesical, 24 h): 0 ng/mL | Plasma concentration of RTX ([2]; female dogs 1004, 1006 individual, 250 mcg intravesical, 36 h): 0 ng/mL | Plasma concentration of RTX ([2]; female dogs 1004, 1006 individual, 250 mcg intravesical, 48 h): 0 ng/mL | Plasma concentration of RTX ([2]; female dogs 1004, 1006 individual, 250 mcg intravesical, 60 h): 0 ng/mL | Plasma concentration of RTX ([2]; female dogs 1004, 1006 individual, 250 mcg intravesical, 72 h): 0 ng/mL | Plasma concentration of RTX ([2]; female dogs 1004, 1006 individual, 250 mcg intravesical, Predose): 0 ng/mL | AUC(0-T)/Dose, Mean [2, 4]: 1.18 pg·h/mL/µg | Cmax/Dose, Mean [2, 4]: 1.10 pg/mL/µg | Plasma concentration of RTX, Mean ([2]; female dogs, 250 mcg intravesical, Predose): 0 ng/mL | Tmax ([2]; female, dog, plasma, 250 ug, female dogs 1004, 1006 individual, 250 mcg intravesical, read-out: Tmax): 30 min | Tmax ([2]; female, dog, plasma, 250 ug, female dogs, 250 mcg intravesical, read-out: Tmax, Mean): 45 ± 21.2 min | concentration at 60 h ([2]; female, dog, plasma, other: intravesical instillation into the urinary bladder, 250 mcg, female dogs 1004, 1006 individual, 250 mcg intravesical, 60 h, read-out: Plasma concentration of RTX): 0 ng/mL | concentration at 72 h ([2]; female, dog, plasma, other: intravesical instillation into the urinary bladder, 250 mcg, female dogs 1004, 1006 individual, 250 mcg intravesical, 72 h, read-out: Plasma concentration of RTX): 0 ng/mL | concentration at 0.5 h ([2]; female, dog, plasma, other: intravesical instillation into the urinary bladder, 250 mcg, female dogs, 250 mcg intravesical, 0.5 h, read-out: Plasma concentration of RTX, Mean): 0.194 ng/mL | concentration at 60 h ([2]; female, dog, plasma, other: intravesical instillation into the urinary bladder, 250 mcg, female dogs, 250 mcg intravesical, 60 h, read-out: Plasma concentration of RTX, Mean): 0 ng/mL | concentration at 72 h ([2]; female, dog, plasma, other: intravesical instillation into the urinary bladder, 250 mcg, female dogs, 250 mcg intravesical, 72 h, read-out: Plasma concentration of RTX, Mean): 0 ng/mL | AUC(0-t) ([2]; female, dog, plasma, other: intravesical instillation, 250 ug, female dogs, 250 mcg intravesical, read-out: AUC(0-T), Mean): 0.294 ± 0.209 ng·h/mL | Cmax ([2]; female, dog, plasma, other: intravesical instillation, 250 ug, female dogs, 250 mcg intravesical, read-out: Cmax, Mean): 0.274 ± 0.161 ng/mL | Tmax ([2]; female, dog, plasma, other: intravesical instillation, 250 ug, female dogs, 250 mcg intravesical, read-out: Tmax, Mean): 45 min | concentration at 0.5 h ([2]; female, dog, plasma, other: intravesical instillation, 25 mcg, female dog 1002, 25 mcg intravesical, 0.5 h, read-out: Plasma concentration of RTX): 0.0392 ng/mL | concentration at 1 h ([2]; female, dog, plasma, other: intravesical instillation, 25 mcg, female dog 1002, 25 mcg intravesical, 1 h, read-out: Plasma concentration of RTX): 0.0203 ng/mL | concentration at 1 h ([2]; female, dog, plasma, other: intravesical instillation, 250 mcg, female dogs 1004, 1006 individual, 250 mcg intravesical, 1 h, read-out: Plasma concentration of RTX): 0.289 ng/mL | concentration at 2 h ([2]; female, dog, plasma, other: intravesical instillation, 250 mcg, female dogs 1004, 1006 individual, 250 mcg intravesical, 2 h, read-out: Plasma concentration of RTX): 0.0602 ng/mL | concentration at 4 h ([2]; female, dog, plasma, other: intravesical instillation, 250 mcg, female dogs 1004, 1006 individual, 250 mcg intravesical, 4 h, read-out: Plasma concentration of RTX): 0 ng/mL | concentration at 6 h ([2]; female, dog, plasma, other: intravesical instillation, 250 mcg, female dogs 1004, 1006 individual, 250 mcg intravesical, 6 h, read-out: Plasma concentration of RTX): 0 ng/mL | concentration at 12 h ([2]; female, dog, plasma, other: intravesical instillation, 250 mcg, female dogs 1004, 1006 individual, 250 mcg intravesical, 12 h, read-out: Plasma concentration of RTX): 0 ng/mL | concentration at 24 h ([2]; female, dog, plasma, other: intravesical instillation, 250 mcg, female dogs 1004, 1006 individual, 250 mcg intravesical, 24 h, read-out: Plasma concentration of RTX): 0 ng/mL | concentration at 36 h ([2]; female, dog, plasma, other: intravesical instillation, 250 mcg, female dogs 1004, 1006 individual, 250 mcg intravesical, 36 h, read-out: Plasma concentration of RTX): 0 ng/mL | concentration at 48 h ([2]; female, dog, plasma, other: intravesical instillation, 250 mcg, female dogs 1004, 1006 individual, 250 mcg intravesical, 48 h, read-out: Plasma concentration of RTX): 0 ng/mL | concentration at 1 h ([2]; female, dog, plasma, other: intravesical instillation, 250 mcg, female dogs, 250 mcg intravesical, 1 h, read-out: Plasma concentration of RTX, Mean): 0.225 ng/mL | concentration at 2 h ([2]; female, dog, plasma, other: intravesical instillation, 250 mcg, female dogs, 250 mcg intravesical, 2 h, read-out: Plasma concentration of RTX, Mean): 0.0557 ng/mL | concentration at 4 h ([2]; female, dog, plasma, other: intravesical instillation, 250 mcg, female dogs, 250 mcg intravesical, 4 h, read-out: Plasma concentration of RTX, Mean): 0 ng/mL | concentration at 6 h ([2]; female, dog, plasma, other: intravesical instillation, 250 mcg, female dogs, 250 mcg intravesical, 6 h, read-out: Plasma concentration of RTX, Mean): 0 ng/mL | concentration at 12 h ([2]; female, dog, plasma, other: intravesical instillation, 250 mcg, female dogs, 250 mcg intravesical, 12 h, read-out: Plasma concentration of RTX, Mean): 0 ng/mL | concentration at 24 h ([2]; female, dog, plasma, other: intravesical instillation, 250 mcg, female dogs, 250 mcg intravesical, 24 h, read-out: Plasma concentration of RTX, Mean): 0 ng/mL | concentration at 36 h ([2]; female, dog, plasma, other: intravesical instillation, 250 mcg, female dogs, 250 mcg intravesical, 36 h, read-out: Plasma concentration of RTX, Mean): 0 ng/mL
